How the values were obtained:
[1] = system: hypertriglyceridemia and hypercholesterolemia-induced animals; experiment: HDL cholesterol concentrations in blood of hypertriglyceridemia and hypercholesterolemia-induced animals (Example 2); type: in vivo, New Zealand White rabbits; conditions: 4 weeks oral once per day, Compound of Formula 1 20 mg/kg/day and/or olmesartan medoxomil 3 mg/kg/day; for average HDL cholesterol concentrations, 4 weeks: n=4-7; for Percent increase of HDL cholesterol level (%): in comparison with the G2 group
Excerpt: (§1) Male New Zealand White rabbits were used as a test animal. All animals, except for the G1 group animals (negative control group), were fed with an irradiation-sterilized hypertriglyceridemia and hypercholesterolemia diet, i.e., DYET #621082 (Purina #5321 chow with 0.5% cholesterol, 14% coconut oil & 2% Maltose Dextrin, Dyets, Inc., Bethlehem, Pa. 18017), which was purchased from Saeronbio Inc. In order to induce hypertriglyceridemia and hypercholesterolemia, the animals were supplied with the diet for more than 4 weeks. After collecting the blood samples from the animals, serum biochemical analyses were performed thereon. Animals showing significant changes in total cholesterol levels and triglyceride levels were selected, in comparison with the non-treated control group. The selected animals were divided into 4 groups on the basis of the total cholesterol levels and triglyceride levels, thereby all the groups having substantially equal average values in the total cholesterol levels and triglyceride levels. The test materials were dissolved in saline containing 0.5% carboxymethylcellulose sodium and 1% Tween 80 and then administered directly into the stomach using an oral syringe adapted with a latex catheter, once per day for 4 weeks. The test groups are as in the following Table 3.
The blood samples were collected through the jugular vein, from the animals at the day initiating the administration of the test material(s) (i.e., at the time of group-dividing, 0 week), and from the animals (which were fasted for 12 to 16 hours before collecting the blood) at 4 weeks after initiating the administration of the test material(s) (n=4-7).

[2] = system: hypertriglyceridemia and hypercholesterolemia-induced animals; experiment: Triglyceride concentrations in hypertriglyceridemia and hypercholesterolemia-induced animals (Example 2); type: in vivo, New Zealand White rabbits; conditions: 4 weeks oral once per day, Compound of Formula 1 20 mg/kg/day and/or olmesartan medoxomil 3 mg/kg/day
Excerpt: as §1, with “3. […]” for “3.”

SMILES	average HDL cholesterol concentrations, 4 weeks [1]	Percent increase of HDL cholesterol level (%) [1]	average triglyceride concentrations, 4 weeks ([2]; 0.5% cholesterol, 14% coconut oil diet, n=4-7)	Percent inhibition of triglyceride in the blood (%) ([2]; in comparison with the G2 group)
COc1cc(F)c(C(C)C)cc1-c1ccc(C(F)(F)F)cc1CN1C(=O)O[C@H](c2cc(C(F)(F)F)cc(C(F)(F)F)c2)[C@@H]1C [Compound of Formula 1, (4S,5R)-5-[3,5-bis(trifluoromethyl)phenyl]-3-({2-[4-fluoro-2-methoxy-5-(propan-2-yl)phenyl]-5-(trifluoromethyl)phenyl}methyl)-4-methyl-1,3-oxazolidin-2-one]	168.5 mg/dL	37.9%		
CCCc1nc(C(C)(C)O)c(C(=O)OCc2oc(=O)oc2C)n1Cc1ccc(-c2ccccc2-c2nnn[nH]2)cc1 [Olmesartan medoxomil]	125.3 mg/dL	2.6%	217.4 mg/dL	33.4%

Source: patent US9724336B2, “Pharmaceutical composition for preventing or treating hyperlipidemia” (priority 2011, dated 2017)
